Target: Melanin-concentrating hormone receptor 1 (Homo sapiens, UniProt Q99705)
Experiment: Displacement of [125I]MCH from human Melanin-concentrating hormone 1 (MCH1) receptor modified for optimal expression in HEK293 cells
Type: cell-based

Chain of Melanin-concentrating hormone receptor 1 (Q99705 whole entry): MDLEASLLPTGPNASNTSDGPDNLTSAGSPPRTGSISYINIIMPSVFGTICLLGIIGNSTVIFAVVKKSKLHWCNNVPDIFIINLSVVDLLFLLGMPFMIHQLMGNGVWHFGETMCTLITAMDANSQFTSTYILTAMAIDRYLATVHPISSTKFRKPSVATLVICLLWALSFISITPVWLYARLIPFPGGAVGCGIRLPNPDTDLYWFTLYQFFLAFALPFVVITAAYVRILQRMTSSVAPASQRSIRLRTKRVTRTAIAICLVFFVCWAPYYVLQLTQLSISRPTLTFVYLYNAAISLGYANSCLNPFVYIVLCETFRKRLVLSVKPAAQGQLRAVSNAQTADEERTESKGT

SMILES	Ki
CN1CCC(N(C)C(=O)CCCN(C)C(=O)c2ccc(-c3ccccc3)cc2)C1 (centres undefined)	142 nM
CN(C(=O)c1ccc(-c2ccc(C(F)(F)F)cc2)cc1)C1CCN(C(=O)N(C)C2CCN(CCCc3ccc(Cl)cc3)C2)C1 (centres undefined)	7.3 nM
CN(C(=O)c1ccc(-c2ccc(C(F)(F)F)cc2)cc1)C1CCN(C(=O)N(C)C2CCN(CCS(=O)(=O)c3ccc(Cl)cc3)C2)C1 (centres undefined)	14 nM
CN(C)CC1CCc2cc(NC(=O)c3ccc(-c4ccc(F)cc4)cc3)ccc2C1 (centres undefined)	5.5 nM
CN(C(=O)c1ccc(Oc2ccc(F)cc2)cc1)C1CCN(C(=O)N(C)C2CCN(CCCc3ccc(Cl)cc3)C2)C1 (centres undefined)	5.3 nM
CN(C(=O)CCCC(=O)c1ccc(Cl)cc1)C1CCN(C(=O)N(C)C2CCN(CCCc3ccccc3)C2)C1 (centres undefined)	48 nM
CN(C(=O)c1ccc(-c2ccc(C(F)(F)F)cc2)cc1)C1CCN(C(=O)N(C)C2CCN(CCS(=O)(=O)N3CCCC3)C2)C1 (centres undefined)	82 nM
CN(C(=O)c1ccc(-c2ccc(C(F)(F)F)cc2)cc1)C1CCN(C(=O)N(C)C2CCN(CCO)C2)C1 (centres undefined)	96 nM
CN(C(=O)c1ccc(-c2ccc(C(F)(F)F)cc2)cc1)C1CCN(C(=O)N(C)C2CCN(CCOc3ccc(Cl)cc3)C2)C1 (centres undefined)	18 nM

From ChEMBL document CHEMBL1141988, “Bis(aminopyrrolidine)-derived ureas (APUs) as potent MCH1 receptor antagonists” (Bioorg Med Chem Lett, 2005)
